Measured values as given in patent US20070142392A1, “Uses of rifamycins” (ActivBiotics, Inc., priority 2005, published 2007).
Values after ≈ are worked out from the molar mass of the structure shown.

Tests used:
Type in all cases: cell-based
S. pneumo. = assay: MIC values, S. pneumo. (Tables 1-4)
E. faecalis = assay: MIC values, E. faecalis (Tables 1-4)
S. aureus = assay: MIC values, S. aureus (Tables 1-4)
E. coli = assay: MIC values, E. coli (Tables 1-4)
H. flu = system: H. flu

## CO[C@H]1/C=C/O[C@@]2(C)Oc3c(C)c(O)c4c(=O)c(c5oc6cc(N7CCC(NC(=O)OCC(C)C)CC7)cc(O)c6nc-5c4c3C2=O)NC(=O)/C(C)=C\C=C\[C@H](C)[C@H](O)[C@@H](C)[C@@H](O)[C@@H](C)[C@H](OC(C)=O)[C@@H]1C [Compound 13]
S. pneumo.
  MIC S. pneumo.: 0.00012 µg/mL (≈ 0.00012 µM)
E. faecalis
  MIC E. faecalis: 0.5 µg/mL (≈ 0.5 µM)
S. aureus
  MIC S. aureus: 0.008 µg/mL (≈ 0.00801 µM)
E. coli
  MIC E. coli: 4 µg/mL (≈ 4 µM)
H. flu
  MIC H. flu: 2 µg/mL (≈ 2 µM)

## COC1C=COC2(C)Oc3c(C)c(O)c4c(=O)c(c5oc6cc(N7CC8CCCNC8C7)cc(O)c6nc-5c4c3C2=O)NC(=O)C(C)=CC=CC(C)C(O)C(C)C(O)C(C)C(O)C1C (stereo not shown) [Compound 15]
S. pneumo.
  MIC S. pneumo.: 0.002 µg/mL (≈ 0.00226 µM)
E. faecalis
  MIC E. faecalis: 0.25 µg/mL (≈ 0.283 µM)
S. aureus
  MIC S. aureus: 0.03 µg/mL (≈ 0.034 µM)
E. coli
  MIC E. coli: >8 µg/mL
H. flu
  MIC H. flu: 1 µg/mL (≈ 1.13 µM)

## CO[C@H]1/C=C/O[C@@]2(C)Oc3c(C)c(O)c4c(=O)c(c5oc6cc(N7CC8CCC(C7)N8)cc(O)c6nc-5c4c3C2=O)NC(=O)/C(C)=C\C=C\[C@H](C)[C@H](O)[C@@H](C)[C@@H](O)[C@@H](C)[C@H](O)[C@@H]1C [Compound 16]
S. pneumo.
  MIC S. pneumo.: 0.001 µg/mL (≈ 0.00115 µM)
E. faecalis
  MIC E. faecalis: 0.12 µg/mL (≈ 0.138 µM)
S. aureus
  MIC S. aureus: 0.015 µg/mL (≈ 0.0173 µM)
E. coli
  MIC E. coli: 4 µg/mL (≈ 4.6 µM)
H. flu
  MIC H. flu: 0.25 µg/mL (≈ 0.288 µM)

## CO[C@H]1/C=C/O[C@@]2(C)Oc3c(C)c(O)c4c(=O)c(c5oc6cc(N7CCC(N(C)C)CC7)cc(O)c6nc-5c4c3C2=O)NC(=O)/C(C)=C\C=C\[C@H](C)[C@H](O)[C@@H](C)[C@@H](O)[C@@H](C)[C@H](OC(C)=O)[C@@H]1C [Compound 17]
S. pneumo.
  MIC S. pneumo.: 0.00012 µg/mL (≈ 0.000129 µM)
E. faecalis
  MIC E. faecalis: 1 µg/mL (≈ 1.08 µM)
S. aureus
  MIC S. aureus: 0.008 µg/mL (≈ 0.00863 µM)
E. coli
  MIC E. coli: 8 µg/mL (≈ 8.63 µM)
H. flu
  MIC H. flu: 1 µg/mL (≈ 1.08 µM)

## CO[C@H]1/C=C/O[C@@]2(C)Oc3c(C)c(O)c4c(=O)c(c5oc6cc(N7CCC(N(C)C)CC7)cc(O)c6nc-5c4c3C2=O)NC(=O)/C(C)=C\C=C\[C@H](C)[C@H](O)[C@@H](C)[C@@H](O)[C@@H](C)[C@H](O)[C@@H]1C [Compound 18]
S. pneumo.
  MIC S. pneumo.: 0.00012 µg/mL (≈ 0.000136 µM)
E. faecalis
  MIC E. faecalis: 0.12 µg/mL (≈ 0.136 µM)
S. aureus
  MIC S. aureus: 0.004 µg/mL (≈ 0.00452 µM)
E. coli
  MIC E. coli: 4 µg/mL (≈ 4.52 µM)
H. flu
  MIC H. flu: 0.5 µg/mL (≈ 0.565 µM)

## CCOC(=O)NC1CCN(c2ccc3nc4c5c6c7c(C)c(O)c5c(=O)c(c-4n(C)c3c2)NC(=O)/C(C)=C\C=C\[C@H](C)[C@H](O)[C@@H](C)[C@@H](O)[C@@H](C)[C@H](OC(C)=O)[C@H](C)[C@@H](OC)/C=C/O[C@@](C)(O7)C6=O)CC1 [Compound 19]
S. pneumo.
  MIC S. pneumo.: 0.001 µg/mL (≈ 0.00103 µM)
E. faecalis
  MIC E. faecalis: 0.06 µg/mL (≈ 0.062 µM)
S. aureus
  MIC S. aureus: 0.004 µg/mL (≈ 0.00413 µM)
E. coli
  MIC E. coli: 4 µg/mL (≈ 4.13 µM)
H. flu
  MIC H. flu: 0.25 µg/mL (≈ 0.258 µM)

## COC1C=COC2(C)Oc3c(C)c(O)c4c(=O)c(c5oc6cc(N7CC8C(N)C8C7)cc(O)c6nc-5c4c3C2=O)NC(=O)C(C)=CC=CC(C)C(O)C(C)C(O)C(C)C(O)C1C (stereo not shown) [Compound 20]
S. pneumo.
  MIC S. pneumo.: 1 µg/mL (≈ 1.17 µM)
E. faecalis
  MIC E. faecalis: >8 µg/mL
S. aureus
  MIC S. aureus: 2 µg/mL (≈ 2.34 µM)
E. coli
  MIC E. coli: >8 µg/mL
H. flu
  MIC H. flu: >8 µg/mL

## CCOC(=O)NC1C2CN(c3cc(O)c4nc5c6c7c8c(C)c(O)c6c(=O)c(c-5oc4c3)NC(=O)C(C)=CC=CC(C)C(O)C(C)C(O)C(C)C(OC(C)=O)C(C)C(OC)C=COC(C)(O8)C7=O)CC21 (stereo not shown) [Compound 21]
S. pneumo.
  MIC S. pneumo.: 0.001 µg/mL (≈ 0.00103 µM)
E. faecalis
  MIC E. faecalis: 0.12 µg/mL (≈ 0.124 µM)
S. aureus
  MIC S. aureus: 0.004 µg/mL (≈ 0.00413 µM)
E. coli
  MIC E. coli: 4 µg/mL (≈ 4.13 µM)
H. flu
  MIC H. flu: 0.5 µg/mL (≈ 0.516 µM)

## CO[C@H]1/C=C/O[C@@]2(C)Oc3c(C)c(O)c4c(=O)c(c5oc6cc(N7CCC(NC(=O)OC(C)C)CC7)cc(O)c6nc-5c4c3C2=O)NC(=O)/C(C)=C\C=C\[C@H](C)[C@H](O)[C@@H](C)[C@@H](O)[C@@H](C)[C@H](OC(C)=O)[C@@H]1C [Compound 22]
S. pneumo.
  MIC S. pneumo.: 0.00025 µg/mL (≈ 0.000254 µM)
E. faecalis
  MIC E. faecalis: 4 µg/mL (≈ 4.06 µM)
S. aureus
  MIC S. aureus: 0.015 µg/mL (≈ 0.0152 µM)
E. coli
  MIC E. coli: >8 µg/mL
H. flu
  MIC H. flu: 2 µg/mL (≈ 2.03 µM)

## CO[C@H]1/C=C/O[C@@]2(C)Oc3c(C)c(O)c4c(=O)c(c5oc6cc(N7CCC(NS(=O)(=O)C(F)(F)F)CC7)cc(O)c6nc-5c4c3C2=O)NC(=O)/C(C)=C\C=C\[C@H](C)[C@H](O)[C@@H](C)[C@@H](O)[C@@H](C)[C@H](OC(C)=O)[C@@H]1C [Compound 23]
S. pneumo.
  MIC S. pneumo.: 0.00012 µg/mL (≈ 0.000116 µM)
E. faecalis
  MIC E. faecalis: 4 µg/mL (≈ 3.88 µM)
S. aureus
  MIC S. aureus: 0.015 µg/mL (≈ 0.0145 µM)
E. coli
  MIC E. coli: >8 µg/mL
H. flu
  MIC H. flu: 2 µg/mL (≈ 1.94 µM)

## CCCC(=O)NC1CCN(c2cc(O)c3nc4c5c6c7c(C)c(O)c5c(=O)c(c-4oc3c2)NC(=O)/C(C)=C\C=C\[C@H](C)[C@H](O)[C@@H](C)[C@@H](O)[C@@H](C)[C@H](OC(C)=O)[C@H](C)[C@@H](OC)/C=C/O[C@@](C)(O7)C6=O)CC1 [Compound 24]
S. pneumo.
  MIC S. pneumo.: 0.001 µg/mL (≈ 0.00103 µM)
E. faecalis
  MIC E. faecalis: 2 µg/mL (≈ 2.06 µM)
S. aureus
  MIC S. aureus: 0.015 µg/mL (≈ 0.0155 µM)
E. coli
  MIC E. coli: >8 µg/mL
H. flu
  MIC H. flu: 2 µg/mL (≈ 2.06 µM)
